Here are results for 32 compounds from ChEMBL document CHEMBL4270495, “Oleanane-, ursane-, and quinone methide friedelane-type triterpenoid derivatives: Recent advances in cancer treatment” (Eur J Med Chem, 2017).

What all share (type): functional, cell-based
In assay [1] the test system is BGC-823. The assay can be described thus: Cytotoxicity in human BGC823 cells assessed as reduction in cell viability incubated for 72 hrs by MTT assay. As to conditions: BGC-823, 72 h.
Assay [2] has as its system HeLa. Kind of assay: Cytotoxicity in human HeLa cells assessed as reduction in cell viability incubated for 72 hrs by MTT assay. A general note: Tetrazolium dyes change colour on reduction, which living cells bring about.
Assay [3] deals with MDA-MB-231. The assay can be described thus: Cytotoxicity in human MDA-MB-231 cells assessed as reduction in cell viability incubated for 24 hrs by MTT assay. To be noted: MDA-MB-231, 24 h.
Assay [4] concerns MCF7. Kind of assay: Cytotoxicity in human MCF7 cells assessed as reduction in cell viability incubated for 24 hrs by MTT assay. To be noted: MCF7, 24 h.
Assay [5] relates to TERT-RPE1. Kind of assay: Cytotoxicity in human hTERT-RPE1 cells assessed as reduction in cell viability incubated for 24 hrs by MTT assay. As to conditions: RPE-1, 24 h.
Assay [6] concerns HT-29. Kind of assay: Cytotoxicity in human HT-29 cells assessed as reduction in cell viability incubated for 72 hrs by MTT assay. As to conditions: HT-29, 72 h.
Assay [7] has as its system HepG2. The assay can be described thus: Cytotoxicity in human HepG2 cells assessed as reduction in cell viability incubated for 72 hrs by MTT assay. To be noted: HepG2, 72 h.

One may read the IC50 as the point on the concentration scale where inhibition reaches its midpoint. `C[C@H]1[C@H](C)CC[C@]2(C(=O)OCCBr)CC[C@]3(C)C(=CC[C@@H]4[C@@]5(C)CC[C@H](O)C(C)(C)[C@@H]5CC[C@]43C)[C@H]12`: the IC50 in assay [1] was found to be 12.4 µM.
In the case of `CC(=O)OC[C@@]1(C)[C@@H]2CC[C@]3(C)[C@H](CC=C4[C@@H]5[C@@H](C)[C@H](C)CC[C@]5(C(=O)NO)CC[C@]43C)[C@@]2(C)C[C@@H](OC(C)=O)[C@@H]1OC(C)=O`, in assay [2], the IC50 is 1.62 µM.
`CCOC(=O)/C=C/c1ccc(OC(=O)[C@@]2(C)CC[C@]3(C)CC[C@]4(C)C(=CC(=O)[C@@H]5[C@@]6(C)CC[C@H](OC(=O)[C@@H](N)CCSC)C(C)(C)[C@@H]6CC[C@]54C)[C@H]3C2)c(OC)c1`: the IC50 was found to be 5.36 µM in assay [3], 8.62 µM in assay [4] and 16.3 µM in assay [5].
On the same counts, the results for `COC(=O)/C=C/c1ccc(OC)c(OC(=O)[C@@]2(C)CC[C@]3(C)CC[C@]4(C)C(=CC(=O)[C@@H]5[C@@]6(C)CC[C@H](OC(=O)[C@@H](N)CCSC)C(C)(C)[C@@H]6CC[C@]54C)[C@H]3C2)c1` are 4.56 µM, 8.7 µM and 8.92 µM.
For `Cc1nc(C)c(COC(=O)[C@]23CCC(C)(C)C[C@H]2C2=CC[C@@H]4[C@@]5(C)CC[C@H](OC(=O)[C@H](C)N)C(C)(C)[C@@H]5CC[C@@]4(C)[C@]2(C)CC3)nc1C`, the IC50 was found to be 4.47 µM in assay [1], 7.69 µM in assay [2], 4.77 µM in assay [6] and 2.32 µM in assay [7].
For `C[C@H]1[C@H](C)CC[C@]2(C(=O)OCCCCN3CCCC3)CC[C@]3(C)C(=CC[C@@H]4[C@@]5(C)CC[C@H](O)C(C)(C)[C@@H]5CC[C@]43C)[C@H]12`, the IC50 in assay [1] turned out to be 7.2 µM.
For the compound `CCOC(=O)/C=C/c1ccc(OC)c(OC(=O)[C@@]2(C)CC[C@]3(C)CC[C@]4(C)C(=CC(=O)[C@@H]5[C@@]6(C)CC[C@H](OC(=O)[C@@H](N)CC[Se]C)C(C)(C)[C@@H]6CC[C@]54C)[C@H]3C2)c1`, the IC50 in assay [3] came to 3.27 µM; in assay [4], 6.93 µM; in assay [5], 10.1 µM.
Take `C[C@H]1[C@H](C)CC[C@]2(C(=O)OCCN3CCOCC3)CC[C@]3(C)C(=CC[C@@H]4[C@@]5(C)CC[C@H](O)C(C)(C)[C@@H]5CC[C@]43C)[C@H]12`: the half-inhibitory concentration (IC50) in assay [1] was 8.8 µM.
Turning to `CCOC(=O)/C=C/c1ccc(OC(=O)[C@@]2(C)CC[C@]3(C)CC[C@]4(C)C(=CC(=O)[C@@H]5[C@@]6(C)CC[C@H](OC(=O)[C@@H](N)CCSC)C(C)(C)[C@@H]6CC[C@]54C)[C@H]3C2)cc1`, the IC50 in assay [3] turned out to be 2.31 µM; in assay [4] it was 2.65 µM; in assay [5], 5.65 µM.
On the same counts, the results for `COC(=O)/C=C/c1ccc(OC)c(OC(=O)[C@@]2(C)CC[C@]3(C)CC[C@]4(C)C(=CC(=O)[C@@H]5[C@@]6(C)CC[C@H](OC(=O)[C@@H](N)CC[Se]C)C(C)(C)[C@@H]6CC[C@]54C)[C@H]3C2)c1` are 3.13 µM, 5.12 µM and 9.79 µM.
Regarding `C[C@H]1[C@H](C)CC[C@]2(C(=O)OCCCN3CCCC3)CC[C@]3(C)C(=CC[C@@H]4[C@@]5(C)CC[C@H](O)C(C)(C)[C@@H]5CC[C@]43C)[C@H]12`, in assay [1], the 50% inhibitory concentration (IC50) came to 7.6 µM.
On to `COC(=O)/C=C/c1ccc(OC(=O)[C@@]2(C)CC[C@]3(C)CC[C@]4(C)C(=CC(=O)[C@@H]5[C@@]6(C)CC[C@H](OC(=O)[C@@H](N)CCSC)C(C)(C)[C@@H]6CC[C@]54C)[C@H]3C2)cc1`, for which the half-inhibitory concentration (IC50) in assay [3] turned out to be 6.43 µM; in assay [4], 7.24 µM; in assay [5], 8.48 µM.
For `CCOC(=O)/C=C/c1ccc(OC(=O)[C@@]2(C)CC[C@]3(C)CC[C@]4(C)C(=CC(=O)[C@@H]5[C@@]6(C)CC[C@H](OC(=O)[C@@H](N)CC[Se]C)C(C)(C)[C@@H]6CC[C@]54C)[C@H]3C2)cc1` the same measures were 1.86 µM, 2.42 µM and 7.08 µM.
For `CCOC(=O)/C=C/c1cccc(OC(=O)[C@@]2(C)CC[C@]3(C)CC[C@]4(C)C(=CC(=O)[C@@H]5[C@@]6(C)CC[C@H](OC(=O)[C@@H](N)CCSC)C(C)(C)[C@@H]6CC[C@]54C)[C@H]3C2)c1` the same measures were 1.92 µM, 5.79 µM and 6.63 µM.
In the case of `C[C@H]1[C@H](C)CC[C@]2(C(=O)OCCCCN3CCCCC3)CC[C@]3(C)C(=CC[C@@H]4[C@@]5(C)CC[C@H](O)C(C)(C)[C@@H]5CC[C@]43C)[C@H]12`, the IC50 in assay [1] came to 5 µM.
Consider `CC(=O)OC[C@@]1(C)[C@@H]2CC[C@]3(C)[C@H](CC=C4[C@@H]5[C@@H](C)[C@H](C)CC[C@]5(C(=O)N(C)O)CC[C@]43C)[C@@]2(C)C[C@@H](OC(C)=O)[C@@H]1OC(C)=O`, for which the IC50 in assay [2] is 3.77 µM.
`COC(=O)/C=C/c1ccc(OC(=O)[C@@]2(C)CC[C@]3(C)CC[C@]4(C)C(=CC(=O)[C@@H]5[C@@]6(C)CC[C@H](OC(=O)[C@@H](N)CC[Se]C)C(C)(C)[C@@H]6CC[C@]54C)[C@H]3C2)c(OC)c1`: the figures for the half-inhibitory concentration (IC50) in assay [3], in assay [4] and in assay [5] were 1.37 µM, 1.88 µM and 4.93 µM, respectively.
As for `Cc1nc(C)c(COC(=O)[C@]23CCC(C)(C)C[C@H]2C2=CC[C@@H]4[C@@]5(C)CC[C@H](OC(=O)[C@@H](N)CO)C(C)(C)[C@@H]5CC[C@@]4(C)[C@]2(C)CC3)nc1C`, the half-inhibitory concentration (IC50) came to 4.89 µM in assay [1], 5.21 µM in assay [2], 4.82 µM in assay [6] and 4.78 µM in assay [7].
As for `COC(=O)/C=C/c1ccc(OC(=O)[C@@]2(C)CC[C@]3(C)CC[C@]4(C)C(=CC(=O)[C@@H]5[C@@]6(C)CC[C@H](OC(=O)[C@@H](N)CC[Se]C)C(C)(C)[C@@H]6CC[C@]54C)[C@H]3C2)cc1`, the half-inhibitory concentration (IC50) in assay [3] was 6.27 µM; in assay [4], 6.02 µM; in assay [5], 6.33 µM.
For `COC(=O)/C=C/c1cccc(OC(=O)[C@@]2(C)CC[C@]3(C)CC[C@]4(C)C(=CC(=O)[C@@H]5[C@@]6(C)CC[C@H](OC(=O)[C@@H](N)CCSC)C(C)(C)[C@@H]6CC[C@]54C)[C@H]3C2)c1` the same measures were 3.54 µM, 7.2 µM and 8.49 µM.
With `Cc1nc(C)c(COC(=O)[C@]23CCC(C)(C)C[C@H]2C2=CC[C@@H]4[C@@]5(C)CC[C@H](OC(=O)[C@@H]6CCCN6)C(C)(C)[C@@H]5CC[C@@]4(C)[C@]2(C)CC3)nc1C`, the half-maximal inhibitory concentration (IC50) in assay [1] is 4.97 µM; in assay [2], 6.75 µM; in assay [6], 3.21 µM; in assay [7] it was 2.39 µM.
Take `C[C@H]1[C@H](C)CC[C@]2(C(=O)OCCCCN3CCOCC3)CC[C@]3(C)C(=CC[C@@H]4[C@@]5(C)CC[C@H](O)C(C)(C)[C@@H]5CC[C@]43C)[C@H]12`: the 50% inhibitory concentration (IC50) in assay [1] came out at 6.5 µM.
Same read-out and setting: as for `C[C@H]1[C@H](C)CC[C@]2(C(=O)OCCCN3CCCCC3)CC[C@]3(C)C(=CC[C@@H]4[C@@]5(C)CC[C@H](O)C(C)(C)[C@@H]5CC[C@]43C)[C@H]12`, the figure is 7.2 µM.
As to `CCOC(=O)/C=C/c1ccc(OC(=O)[C@@]2(C)CC[C@]3(C)CC[C@]4(C)C(=CC(=O)[C@@H]5[C@@]6(C)CC[C@H](OC(=O)[C@@H](N)CC[Se]C)C(C)(C)[C@@H]6CC[C@]54C)[C@H]3C2)c(OC)c1`, the IC50 turned out to be 3.49 µM in assay [3], 8.45 µM in assay [4] and 12.3 µM in assay [5].
On to `COC(=O)/C=C/c1ccc(OC(=O)[C@@]2(C)CC[C@]3(C)CC[C@]4(C)C(=CC(=O)[C@@H]5[C@@]6(C)CC[C@H](OC(=O)[C@@H](N)CCSC)C(C)(C)[C@@H]6CC[C@]54C)[C@H]3C2)c(OC)c1`, for which the concentration for half-maximal inhibition (IC50) was 3.52 µM in assay [3], 6 µM in assay [4] and 10.4 µM in assay [5].
On the same counts, the results for `CCOC(=O)/C=C/c1ccc(OC)c(OC(=O)[C@@]2(C)CC[C@]3(C)CC[C@]4(C)C(=CC(=O)[C@@H]5[C@@]6(C)CC[C@H](OC(=O)[C@@H](N)CCSC)C(C)(C)[C@@H]6CC[C@]54C)[C@H]3C2)c1` are 4.67 µM, 8.81 µM and 12.5 µM.
Take `C[C@H]1[C@H](C)CC[C@]2(C(=O)OCCCN3CCOCC3)CC[C@]3(C)C(=CC[C@@H]4[C@@]5(C)CC[C@H](O)C(C)(C)[C@@H]5CC[C@]43C)[C@H]12`: in assay [1], the IC50 amounted to 7.3 µM.
As to `CCOC(=O)/C=C/c1cccc(OC(=O)[C@@]2(C)CC[C@]3(C)CC[C@]4(C)C(=CC(=O)[C@@H]5[C@@]6(C)CC[C@H](OC(=O)[C@@H](N)CC[Se]C)C(C)(C)[C@@H]6CC[C@]54C)[C@H]3C2)c1`, the values for the IC50 in assay [3], in assay [4] and in assay [5] were 1.53 µM, 2.57 µM and 3.7 µM, respectively.
On the same counts, the results for `COC(=O)/C=C/c1cccc(OC(=O)[C@@]2(C)CC[C@]3(C)CC[C@]4(C)C(=CC(=O)[C@@H]5[C@@]6(C)CC[C@H](OC(=O)[C@@H](N)CC[Se]C)C(C)(C)[C@@H]6CC[C@]54C)[C@H]3C2)c1` are 2.46 µM, 3.48 µM and 4.55 µM.
`C[C@H]1[C@H](C)CC[C@]2(C(=O)OCCN3CCCC3)CC[C@]3(C)C(=CC[C@@H]4[C@@]5(C)CC[C@H](O)C(C)(C)[C@@H]5CC[C@]43C)[C@H]12`: the IC50 in assay [1] came out at 4.5 µM.
Same read-out and setting: as for `C[C@H]1[C@H](C)CC[C@]2(C(=O)OCCCCBr)CC[C@]3(C)C(=CC[C@@H]4[C@@]5(C)CC[C@H](O)C(C)(C)[C@@H]5CC[C@]43C)[C@H]12` [BROMOBUTYL-3BETA-HYDROXY-URS-12-EN-28-OATE], the figure is 10 µM; as for `C[C@H]1[C@H](C)CC[C@]2(C(=O)OCCCBr)CC[C@]3(C)C(=CC[C@@H]4[C@@]5(C)CC[C@H](O)C(C)(C)[C@@H]5CC[C@]43C)[C@H]12` [BROMOPROPYL-3BETA-HYDROXY-URS-12-EN-28-OATE], 6.5 µM.
